pEC50: −log10 of the molar value. The source made the active and inactive calls. The rule behind the calls is not given here.
Assays:
[1] = molecular target: T1, Peroxisome proliferator-activated receptor delta (Homo sapiens, UniProt Q03181); experiment: Activation of human PPAR-delta LBD expressed in HEK293T cells assessed as induction of receptor activation incubated for 12 to 14 hrs by luciferase reporter gene assay; assay type: cell-based, HEK-293T
T1 sequence (Q03181 whole entry): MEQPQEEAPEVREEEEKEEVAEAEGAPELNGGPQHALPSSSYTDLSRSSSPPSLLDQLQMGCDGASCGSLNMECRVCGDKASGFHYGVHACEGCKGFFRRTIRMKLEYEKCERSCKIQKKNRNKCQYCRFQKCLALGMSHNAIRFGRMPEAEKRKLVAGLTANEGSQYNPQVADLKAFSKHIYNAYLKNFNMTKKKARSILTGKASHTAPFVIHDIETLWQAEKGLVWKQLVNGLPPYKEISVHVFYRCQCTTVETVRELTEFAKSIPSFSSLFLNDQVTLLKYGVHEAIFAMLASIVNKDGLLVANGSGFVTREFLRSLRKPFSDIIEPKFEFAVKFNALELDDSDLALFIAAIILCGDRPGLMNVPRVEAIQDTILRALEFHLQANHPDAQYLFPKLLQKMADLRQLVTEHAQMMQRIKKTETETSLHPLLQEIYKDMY

[2] = molecular target: T2, Peroxisome proliferator-activated receptor delta (Homo sapiens) (UniProt Q03181); experiment: Activation of human PPAR-delta LBD expressed in HEK293T cells assessed as induction of receptor activation at 1 uM incubated for 12 to 14 hrs by luciferase reporter gene assay relative to L165,041; assay type: cell-based; conditions: HEK-293T
T2 sequence (whole entry): T1 sequence (Q03181 whole entry)

[3] = molecular target: T2, Peroxisome proliferator-activated receptor delta (Homo sapiens); experiment: Activation of human PPAR-delta LBD expressed in HEK293T cells assessed as induction of receptor activation at 10 uM incubated for 12 to 14 hrs by luciferase reporter gene assay; assay type: cell-based; conditions: HEK-293T
[4] = molecular target: T3, Peroxisome proliferator-activated receptor alpha (Homo sapiens) (UniProt Q07869); experiment: Activation of human PPAR-alpha LBD expressed in HEK293T cells assessed as induction of receptor activation at 10 uM incubated for 12 to 14 hrs by luciferase reporter gene assay; assay type: cell-based; conditions: HEK-293T
T3 sequence (whole entry): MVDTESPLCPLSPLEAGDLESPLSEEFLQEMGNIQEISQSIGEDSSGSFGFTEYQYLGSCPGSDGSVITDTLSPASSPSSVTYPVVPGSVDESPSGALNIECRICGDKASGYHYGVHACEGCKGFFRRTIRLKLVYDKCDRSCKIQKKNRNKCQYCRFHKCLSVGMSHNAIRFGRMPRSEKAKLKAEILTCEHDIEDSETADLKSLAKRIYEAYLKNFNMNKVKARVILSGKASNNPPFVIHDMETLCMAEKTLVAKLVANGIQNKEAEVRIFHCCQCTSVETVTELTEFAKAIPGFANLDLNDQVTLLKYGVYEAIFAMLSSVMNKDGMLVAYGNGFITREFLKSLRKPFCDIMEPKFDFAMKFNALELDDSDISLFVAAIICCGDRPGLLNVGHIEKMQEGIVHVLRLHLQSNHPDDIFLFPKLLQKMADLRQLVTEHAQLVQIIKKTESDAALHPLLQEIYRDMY

[5] = molecular target: T4, Oxysterols receptor LXR-alpha (Homo sapiens) (UniProt Q13133); experiment: Activation of human LXR-alpha LBD expressed in HEK293T cells assessed as induction of receptor activation at 10 uM incubated for 12 to 14 hrs by luciferase reporter gene assay; assay type: cell-based; conditions: HEK-293T
T4 sequence (whole entry): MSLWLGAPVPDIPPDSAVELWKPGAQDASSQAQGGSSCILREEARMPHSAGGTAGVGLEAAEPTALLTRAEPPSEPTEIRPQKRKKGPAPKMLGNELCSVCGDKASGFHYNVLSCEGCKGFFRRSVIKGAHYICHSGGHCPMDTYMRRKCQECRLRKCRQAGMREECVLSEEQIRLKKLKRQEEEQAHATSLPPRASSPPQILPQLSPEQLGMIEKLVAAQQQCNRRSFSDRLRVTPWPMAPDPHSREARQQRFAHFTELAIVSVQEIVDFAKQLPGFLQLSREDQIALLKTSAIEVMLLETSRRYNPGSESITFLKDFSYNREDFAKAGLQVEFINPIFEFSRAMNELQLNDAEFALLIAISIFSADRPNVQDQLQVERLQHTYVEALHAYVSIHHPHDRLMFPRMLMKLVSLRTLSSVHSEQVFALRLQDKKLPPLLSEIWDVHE

[6] = molecular target: T5, Bile acid receptor (Homo sapiens) (UniProt Q96RI1); experiment: Activation of FXR in human HepG2 cells assessed as decrease in CYP7A1 mRNA expression at 3 uM incubated for 8 hrs by quantitative real time PCR analysis; assay type: cell-based
T5 sequence (whole entry): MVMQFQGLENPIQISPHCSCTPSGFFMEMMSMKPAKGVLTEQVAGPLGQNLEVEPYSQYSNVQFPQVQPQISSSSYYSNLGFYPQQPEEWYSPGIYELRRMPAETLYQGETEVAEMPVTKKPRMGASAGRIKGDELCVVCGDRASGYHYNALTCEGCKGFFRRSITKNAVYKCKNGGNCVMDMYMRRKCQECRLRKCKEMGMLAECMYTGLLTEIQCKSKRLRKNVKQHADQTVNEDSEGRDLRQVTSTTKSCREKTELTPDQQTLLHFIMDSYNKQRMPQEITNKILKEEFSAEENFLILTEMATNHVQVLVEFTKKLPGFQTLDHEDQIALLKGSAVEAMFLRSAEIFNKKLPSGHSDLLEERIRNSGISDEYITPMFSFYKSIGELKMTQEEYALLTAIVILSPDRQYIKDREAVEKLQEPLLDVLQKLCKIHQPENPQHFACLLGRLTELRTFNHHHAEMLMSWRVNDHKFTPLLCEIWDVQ

[7] = molecular target: T6, Peroxisome proliferator-activated receptor delta (Mus musculus) (UniProt P35396); experiment: Activation of PPARD in mouse C2C12 cells assessed as increase PCK mRNA expression at 3 uM incubated for 8 hrs by quantitative real time PCR analysis; assay type: cell-based
T6 sequence (whole entry): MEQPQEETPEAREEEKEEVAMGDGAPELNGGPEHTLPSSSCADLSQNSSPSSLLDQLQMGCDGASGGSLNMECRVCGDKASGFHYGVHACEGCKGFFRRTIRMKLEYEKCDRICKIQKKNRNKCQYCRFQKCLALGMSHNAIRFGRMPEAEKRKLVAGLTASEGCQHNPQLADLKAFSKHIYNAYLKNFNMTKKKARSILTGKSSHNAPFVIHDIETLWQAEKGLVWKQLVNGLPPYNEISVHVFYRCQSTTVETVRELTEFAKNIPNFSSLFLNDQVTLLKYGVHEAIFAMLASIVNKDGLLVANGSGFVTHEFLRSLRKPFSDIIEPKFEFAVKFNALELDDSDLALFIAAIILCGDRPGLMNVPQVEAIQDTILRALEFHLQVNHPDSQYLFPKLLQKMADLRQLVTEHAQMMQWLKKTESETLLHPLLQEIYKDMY

[8] = test system: HepG2; experiment: Toxicity in human HepG2 cells assessed as reduction in cell viability up to 100 uM incubated for 48 hrs by WST1 assay; assay type: cell-based; conditions: hepg2, 48 h

Structure (SMILES): CC(C)c1onc(-c2c(Cl)cccc2Cl)c1COc1ccc(CNc2ccc(CC(=O)O)cc2)c(Cl)c1
- pEC50 [1]: 5.82
- %max [2]: 17%
- Activity [3]: Active
- Activity [4]: inactive
- Activity [5]: inactive
- Activity [6]: Active
- Activity [7]: Active
- Activity [8]: Non-Toxic
